Assay [1] has as its system parent untransformed BaF3 cells. Description: Tritiated thymidine uptake cell proliferation assay, parental BaF3 (control). Format: cell-based. The conditions noted are these: Mus musculus, 3[H]-thymidine uptake, 72 h, medium with IL-3, read-out: BaF parental IC50. An outline of the steps: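 Control lines were parental BaF3 in IL-3-supplemented medium and ALK-, Abl- or RET-negative U937, seeded at 10 000 cells/well with serial inhibitor dilutions for 72 h at 37 °C. ³H-thymidine (1 μCi/well) was added for the final 16 h; IC50 (μM) is the concentration halving uptake versus DMSO.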

In assay [2] the target is T1, BaF3 cells transformed with the oncogenic fusion protein NPM/ALK (Homo sapiens, UniProt Q9UM73).
T1 construct: fused on or other part: P06748 (Nucleophosmin)
T1 sequence (Q9UM73 whole entry, change not shown, the tested form may be a part): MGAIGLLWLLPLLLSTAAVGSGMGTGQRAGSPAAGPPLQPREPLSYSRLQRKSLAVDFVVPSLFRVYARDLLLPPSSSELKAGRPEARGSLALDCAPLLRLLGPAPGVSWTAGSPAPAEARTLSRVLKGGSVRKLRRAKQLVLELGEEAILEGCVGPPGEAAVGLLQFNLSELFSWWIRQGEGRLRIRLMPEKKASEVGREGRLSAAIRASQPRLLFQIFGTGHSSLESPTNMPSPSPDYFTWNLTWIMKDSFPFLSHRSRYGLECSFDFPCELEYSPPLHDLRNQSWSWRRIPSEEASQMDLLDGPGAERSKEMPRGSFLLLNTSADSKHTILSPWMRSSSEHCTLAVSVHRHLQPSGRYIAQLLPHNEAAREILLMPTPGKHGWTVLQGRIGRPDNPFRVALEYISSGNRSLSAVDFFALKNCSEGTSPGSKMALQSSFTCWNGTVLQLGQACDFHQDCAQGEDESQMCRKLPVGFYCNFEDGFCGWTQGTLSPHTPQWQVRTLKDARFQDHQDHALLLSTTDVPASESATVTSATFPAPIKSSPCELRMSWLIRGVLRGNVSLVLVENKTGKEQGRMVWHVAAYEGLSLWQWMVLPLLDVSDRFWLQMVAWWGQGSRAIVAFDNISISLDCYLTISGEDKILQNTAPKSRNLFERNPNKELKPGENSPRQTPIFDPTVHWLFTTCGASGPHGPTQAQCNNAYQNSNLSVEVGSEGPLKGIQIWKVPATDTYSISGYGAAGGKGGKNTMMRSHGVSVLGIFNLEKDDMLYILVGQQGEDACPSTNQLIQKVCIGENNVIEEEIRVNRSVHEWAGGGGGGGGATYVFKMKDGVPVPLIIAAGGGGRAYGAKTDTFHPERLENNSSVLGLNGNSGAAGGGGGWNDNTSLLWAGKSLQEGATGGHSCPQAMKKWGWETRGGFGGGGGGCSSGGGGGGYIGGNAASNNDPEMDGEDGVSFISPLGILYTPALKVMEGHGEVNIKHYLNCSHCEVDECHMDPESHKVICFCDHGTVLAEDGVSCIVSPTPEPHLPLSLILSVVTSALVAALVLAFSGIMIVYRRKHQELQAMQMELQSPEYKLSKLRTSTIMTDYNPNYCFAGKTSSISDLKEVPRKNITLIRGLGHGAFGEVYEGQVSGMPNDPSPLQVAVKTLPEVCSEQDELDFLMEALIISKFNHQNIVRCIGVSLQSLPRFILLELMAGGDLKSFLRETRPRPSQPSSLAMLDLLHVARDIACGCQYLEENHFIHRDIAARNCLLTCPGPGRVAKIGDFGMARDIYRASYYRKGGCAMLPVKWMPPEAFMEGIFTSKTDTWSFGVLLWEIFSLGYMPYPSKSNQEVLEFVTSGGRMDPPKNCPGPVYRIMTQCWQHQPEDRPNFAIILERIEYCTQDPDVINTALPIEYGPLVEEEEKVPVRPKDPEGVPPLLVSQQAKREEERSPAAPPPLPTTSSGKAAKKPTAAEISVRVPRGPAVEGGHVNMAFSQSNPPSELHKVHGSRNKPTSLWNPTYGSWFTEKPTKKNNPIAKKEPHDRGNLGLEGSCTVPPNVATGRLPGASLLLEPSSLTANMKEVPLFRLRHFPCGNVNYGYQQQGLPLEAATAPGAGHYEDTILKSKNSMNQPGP
The experiment in a line: Tritiated thymidine uptake cell proliferation assay, BaF3 NPM/ALK. The note with it: 3[H]-thymidine uptake, 72 h; read-out: BaF NPM/ALK IC50. Format: cell-based. In a few lines: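 Cells were seeded at 10 000/well with serial inhibitor dilutions or DMSO vehicle and incubated 72 h at 37 °C, with ^3[H]-thymidine (1 μCi/well) added for the final 16 h. Incorporation was read by β scintillation counting. IC50 (μM) is the concentration giving a 50% decrease in uptake versus controls.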

Assay [3] concerns ALK-negative U937 cells. The experiment in a line: Tritiated thymidine uptake cell proliferation assay, U937 (control). Type of assay: cell-based. The conditions noted are these: Homo sapiens, U-937; 3[H]-thymidine uptake, 72 h. The method, then:
(§1) Method: Tritiated Thymidine Uptake Cell Proliferation Assay
The following procedure was used with parent untransformed BaF3 cells, BaF3 cells transformed with the oncogenic fusion protein NPM/ALK, NPM/ALK positive SUDHL-1 cells, ALK-negative U937 cells, NPM/ALK positive KARPAS-299 cells. The parent untransformed BaF3 cells and Alk-negative U937 cells are used as controls. Cells were seeded in U-bottomed 96-well plates at 10 000 cells/well in a volume of 100 μL in supplemented medium. In the case of the parent untransformed BaF3 cells, the medium was supplemented with IL-3. Serial dilutions of inhibitors were added to the appropriate wells and volumes adjusted to 200 μL. Controls were treated with the equivalent volume of vehicle, DMSO, alone. Plates were incubated at 37° C. for 72 h. ^3[H]-thymidine (1 μCi/well) was added for the last 16 h of incubation. Cells were harvested on to paper filters and ^3[H]-thymidine incorporation was measured using a β scintillation counter (1430 MicroBeta, Wallac, Turku, Finland). The 50% inhibitory concentration (IC50) was defined as the concentration of inhibitor, expressed in micromolar, that gave a 50% decrease in ^3[H]-thymidine uptake compared with controls. […]
(§2) The following procedure was used with parent untransformed BaF3 cells, BaF3 cells transformed with the oncogenic fusion protein RET-PTC2, or RET-negative 11937 cells. The parent untransformed BaF3 cells and RET-negative U937 cells are used as controls. Cells were seeded in U-bottomed 96-well plates at 10 000 cells/well in a volume of 100 μL in supplemented medium. In the case of the parent untransformed BaF3 cells, the medium was supplemented with IL-3. Serial dilutions of inhibitors were added to the appropriate wells and volumes adjusted to 200 μL. Controls were treated with the equivalent volume of vehicle, DMSO, alone. Plates were incubated at 37° C. for 72 h. ^3[H]-thymidine (1 μCi/well) was added for the last 16 h of incubation. Cells were harvested on to paper filters and ^3[H]-thymidine incorporation was measured using a β scintillation counter (1430 MicroBeta, Wallac, Turku, Finland). The 50% inhibitory concentration (IC50) was defined as the concentration of inhibitor, expressed in micromolar, that gave a 50% decrease in ^3[H]-thymidine uptake compared with controls.

Assay [4] deals with NPM/ALK positive SUDHL-1 cells. The experiment in a line: Tritiated thymidine uptake cell proliferation assay, SUDHL-1. Type of assay: cell-based. The conditions noted are these: 3[H]-thymidine uptake, 72 h. The method, then: Inhibition of the proliferation of NPM/ALK positive cells
as §1
The following procedure was used with parent untransformed BaF3 cells, BaF3 cells transformed with the oncogenic fusion protein NPM/ALK, NPM/ALK positive SUDHL-1 cells, ALK-negative U937 cells, NPM/ALK positive KARPAS-299 cells. The parent untransformed BaF3 cells and Alk-negative U937 cells are used as controls. Cells were seeded in U-bottomed 96-well plates at 10 000 cells/well in a volume of 100 μL in supplemented medium. In the case of the parent untransformed BaF3 cells, the medium was supplemented with IL-3. Serial dilutions of inhibitors were added to the appropriate wells and volumes adjusted to 200 μL. Controls were treated with the equivalent volume of vehicle, DMSO, alone. Plates were incubated at 37° C. for 72 h. ^3[H]-thymidine (1 μCi/well) was added for the last 16 h of incubation. Cells were harvested on to paper filters and ^3[H]-thymidine incorporation was measured using a β scintillation counter (1430 MicroBeta, Wallac, Turku, Finland). The 50% inhibitory concentration (IC50) was defined as the concentration of inhibitor, expressed in micromolar, that gave a 50% decrease in ^3[H]-thymidine uptake compared with controls.

The target in assay [5] is T2, Recombinant ALK kinase (Homo sapiens, UniProt Q9UM73).
T2 construct: made in house; host or cells: Sf9 insect cells (baculovirus)
T2 sequence (Q9UM73 19-1620): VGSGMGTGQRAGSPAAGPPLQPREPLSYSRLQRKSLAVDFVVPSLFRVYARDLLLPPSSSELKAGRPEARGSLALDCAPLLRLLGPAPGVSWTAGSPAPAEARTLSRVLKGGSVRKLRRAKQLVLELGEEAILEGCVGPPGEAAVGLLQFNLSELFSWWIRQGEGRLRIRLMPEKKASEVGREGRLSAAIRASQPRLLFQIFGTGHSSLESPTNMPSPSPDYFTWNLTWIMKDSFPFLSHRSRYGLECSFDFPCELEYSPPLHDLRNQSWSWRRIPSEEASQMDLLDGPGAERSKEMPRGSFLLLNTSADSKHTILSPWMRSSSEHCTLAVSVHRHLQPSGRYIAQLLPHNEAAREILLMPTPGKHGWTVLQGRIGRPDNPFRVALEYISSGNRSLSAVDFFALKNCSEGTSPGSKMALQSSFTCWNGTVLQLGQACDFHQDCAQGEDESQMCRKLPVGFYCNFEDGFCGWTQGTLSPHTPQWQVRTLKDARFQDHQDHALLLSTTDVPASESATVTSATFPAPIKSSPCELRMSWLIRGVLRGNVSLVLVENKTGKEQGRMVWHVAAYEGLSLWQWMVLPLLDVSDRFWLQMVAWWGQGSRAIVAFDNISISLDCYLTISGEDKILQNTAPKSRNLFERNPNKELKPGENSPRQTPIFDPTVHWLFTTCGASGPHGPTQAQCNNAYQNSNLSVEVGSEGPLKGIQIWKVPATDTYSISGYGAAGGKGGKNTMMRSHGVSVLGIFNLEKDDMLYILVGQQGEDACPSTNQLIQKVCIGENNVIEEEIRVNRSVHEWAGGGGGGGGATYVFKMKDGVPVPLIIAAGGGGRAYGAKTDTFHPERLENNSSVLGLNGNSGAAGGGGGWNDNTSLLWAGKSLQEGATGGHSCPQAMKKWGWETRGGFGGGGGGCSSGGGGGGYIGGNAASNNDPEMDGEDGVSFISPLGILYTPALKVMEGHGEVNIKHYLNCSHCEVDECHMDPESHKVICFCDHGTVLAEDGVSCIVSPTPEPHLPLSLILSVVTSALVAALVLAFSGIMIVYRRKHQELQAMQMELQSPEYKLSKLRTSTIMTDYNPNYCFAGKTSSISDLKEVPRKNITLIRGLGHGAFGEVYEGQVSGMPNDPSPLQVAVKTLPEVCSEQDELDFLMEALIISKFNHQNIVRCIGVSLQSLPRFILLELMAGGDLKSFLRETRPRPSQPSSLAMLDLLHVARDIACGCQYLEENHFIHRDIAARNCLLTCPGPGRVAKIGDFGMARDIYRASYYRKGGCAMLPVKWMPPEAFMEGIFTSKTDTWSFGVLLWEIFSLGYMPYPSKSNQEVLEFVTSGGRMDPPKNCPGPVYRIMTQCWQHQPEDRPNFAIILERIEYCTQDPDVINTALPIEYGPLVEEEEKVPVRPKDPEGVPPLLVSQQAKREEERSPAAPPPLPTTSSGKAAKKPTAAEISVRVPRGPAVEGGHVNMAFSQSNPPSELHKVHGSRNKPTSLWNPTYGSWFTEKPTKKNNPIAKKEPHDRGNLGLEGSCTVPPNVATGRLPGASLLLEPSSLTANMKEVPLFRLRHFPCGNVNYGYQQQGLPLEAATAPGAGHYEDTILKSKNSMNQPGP
Description: ALK kinase inhibitory activity, ELISA-based in vitro kinase assay. Type of assay: biochemical. An outline of the steps:
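Sf9-expressed, purified recombinant ALK phosphorylated a plate-coated peptide substrate with 0.3 mM ATP, Mn2+/Mg2+, pH 7.5, 15 min at 30° C, after 10 min inhibitor preincubation. Phosphotyrosine was detected by anti-pTyr ELISA (TMB, A450); IC50 in μM is the concentration giving 50% inhibition relative to control.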
On the technique in general: An ELISA detects its analyte on a solid surface through an enzyme-linked reagent.

In assay [6] the target is T3, Recombinant Abl T315I protein (Homo sapiens, UniProt P00519, T315I).
T3 construct: made in house; host or cells: Sf9 cells (baculovirus)
Description: Abl T315I mutant kinase inhibitory activity, ELISA-based in vitro kinase assay. Type of assay: biochemical. The conditions noted are these: purified Abl T315I, 0.3 mM ATP. An outline of the steps:
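His-tagged human Abl T315I from Sf9 cells, preincubated 10 min at room temperature with inhibitor, then reacted on peptide-coated plates with 0.3 mM ATP, 1 mM MnCl2, 5 mM MgCl2 in 50 mM Tris pH 7.5. Phosphotyrosine detected by anti-pTyr/HRP ELISA at 450 nm; IC50 as 50% inhibition vs control.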

For assay [7], the target named is BaF3 cells transformed with the oncogenic fusion protein bcr-abl (Homo sapiens, UniProt P00519). The experiment in a line: Tritiated thymidine uptake cell proliferation assay, BaF3 BCR/ABL. Type of assay: cell-based. The conditions noted are these: 3[H]-thymidine uptake, 72 h; read-out: BaF BCR/ABL IC50. The method, then: Inhibition of the Proliferation of Bcr/Abl Positive Cells
as §1
as §2, with “protein bcr-abl, Abl-negative U937 cells,” for “protein RET-PTC2,”, “or Bcr-abl positive LAMA-84” for “or RET-negative 11937”, “and Abl-negative” for “and RET-negative”, “in ^3H-thymidine” for “in ^3[H]-thymidine”

Where [8] appears, read: purified rALK, 0.3 mM ATP, read-out: ALK IC50.
[9] abbreviates: repeated determinations, 1st, read-out: ALK IC50, 1st determination.
The mark [10] stands for this setting: repeated determinations, 2nd or 'then'.

Read-outs that look alike come from different tables or passages of the source.

For `O=[N+]([O-])c1ccccc1Nc1ccnc2[nH]c3ccccc3c12` [R323, N-(2-nitrophenyl)-9H-pyrido[2,3-b]indol-4-amine], the IC50 in assay [1] was more than 100 µM; in assay [3], 13 µM; in assay [4], more than 100 µM; in assay [5] (setting [8]), 23 ± 12 µM. For the same compound, the GI50 in assay [2] was 0.21 ± 0.01 µM.

Turning to `CCN(CC)CCCOc1ccc(-c2ccc3[nH]c4ncc(Cl)cc4c3c2)cc1` [R337, 3-(4-(3-chloro-9H-pyrido[2,3-b]indol-6-yl)phenoxy)-N,N-diethylpropan-1-amine], the IC50 in assay [1] came to 2.6 µM; in assay [3] it was 1.1 µM; in assay [4] it was 2.4 µM; in assay [5] (setting [8]), 31 ± 9 µM. In addition, the GI50 in assay [2] is 2.5 µM.

For `CN1CCN(CCOc2ccc(-c3ccc4[nH]c5ncc(Cl)cc5c4c3)cc2)CC1` [R347, 3-chloro-6-(4-(2-(4-methylpiperazin-1-yl)ethoxy)phenyl)-9H-pyrido[2,3-b]indole], the IC50 in assay [1] is 2.4 µM; in assay [3] it was 4.6 µM; in assay [4], 2.6 µM; in assay [5] (setting [8]), 7.8 ± 0.9 µM. In addition, in assay [2], the GI50 is 2.5 µM.

Consider `O=[N+]([O-])c1ccccc1Nc1ccc2c(n1)[nH]c1ccc(/C=C/c3ccccc3)cc12` [R332, N-(2-nitrophenyl)-6-(2′-phenylethenyl)-9H-pyrido[2,3-b]indol-2-amine], for which the IC50 came out at 20 ± 1 µM in assay [1], 1.9 µM in assay [3], 3.6 µM in assay [4] and 13 ± 2 µM in assay [5] (setting [8]). Further, in assay [2], the GI50 was determined as 3 ± 0.8 µM.

`CCCC#Cc1ccc2c(n1)[nH]c1ccccc12` [R341, 2-(pent-1-ynyl)-9H-pyrido[2,3-b]indole]: the IC50 in assay [1] came out at 70 µM; in assay [3] it was 17 µM; in assay [4] it was 48 µM; in assay [5] (setting [8]), 11 ± 0.1 µM. Moreover, the GI50 in assay [2] was 74 µM.

Take `COc1cccc(Nc2cnc3[nH]c4ccc(CCc5ccccc5)cc4c3c2)c1` [R352, N-(3-methoxyphenyl)-6-(2′-phenylethyl)-9H-pyrido[2,3-b]indol-3-amine]: the IC50 in assay [1] came out at 5.3 µM; in assay [3], 13 µM; in assay [4], 8.6 µM; in assay [5] (setting [9]), 19 µM. In addition, the GI50 in assay [2] was 5.2 µM. In addition, the “ALK IC50, 2nd / subsequent determination” value in assay [5] (setting [10]) was “inactive”.

`COc1ccc(-c2ccc3[nH]c4ncc(/C=C/c5ccccc5)cc4c3c2)cc1` [R315, 6-(4-methoxyphenyl)-3-(2′-phenylethenyl)-9H-pyrido[2,3-b]indole]: the IC50 is 25 ± 10 µM in assay [1]; 6.5 µM in assay [6]; 21 µM in assay [3]; 2 µM in assay [4]; 1.1 ± 0.3 µM in assay [5] (setting [8]). In assay [2], the GI50 was 3.9 ± 1.1 µM.

Take `c1ccc(CCc2ccc3[nH]c4ncc(-c5ccc6c(c5)OCO6)cc4c3c2)cc1` [R354, 3-(benzo[d][1,3]dioxol-5-yl)-6-(2′-phenylethyl)-9H-pyrido[2,3-b]indole]: the IC50 in assay [1] was 27 µM; in assay [3], 27 µM; in assay [4], 25 µM; in assay [5] (setting [8]), 13 µM. Moreover, in assay [2], the GI50 is 22 µM.

Regarding `COc1ccc(/C=C/c2ccc3[nH]c4ncc(Cl)cc4c3c2)cc1` [R350, (E)-3-chloro-6-(2′-(4-methoxyphenyl)ethenyl)-9H-pyrido[2,3-b]indole], the IC50 in assay [1] was more than 100 µM; in assay [3], more than 100 µM; in assay [4], more than 100 µM; in assay [5] (setting [9]) it was 5.1 µM; in assay [5] (repeated determinations, 2nd or 'then', read-out: ALK IC50, 2nd / subsequent determination) it was 35 µM. In addition, the GI50 in assay [2] was more than 100 µM. The “ALK IC50, 3rd determination” value in assay [5] (repeated determinations, 3rd) was “inactive”.

In the case of `Clc1cnc2[nH]c3ccc(CCc4ccccc4)cc3c2c1` [R351, 3-chloro-6-(2′-phenylethyl)-9H-pyrido[2,3-b]indole], the IC50 was more than 100 µM in assay [1], 23 µM in assay [3], 7.6 µM in assay [4] and 66 µM in assay [5] (setting [9]). Also, the GI50 in assay [2] is more than 100 µM. For the same compound, the “ALK IC50, 2nd / subsequent determination” value in assay [5] (setting [10]) is “inactive”.

Take `CCN(CC)CCCOc1ccc(-c2ccc3[nH]c4ncc(C=Cc5ccccc5)cc4c3c2)cc1` [R340]: the IC50 in assay [1] is 1 µM; in assay [3] it was 0.5 µM; in assay [4] it was 0.7 µM; in assay [5] (setting [8]), 7 ± 1.5 µM. For the same compound, the GI50 in assay [2] turned out to be 1.2 µM.

As to `CC(=O)c1ccc2[nH]c3ncc(Cl)cc3c2c1` [R253, 6-acetyl-3-chloro-9H-pyrido[2,3-b]indole], the IC50 in assay [1] was more than 20 µM. The GI50 in assay [7] and in assay [2] was more than 20 µM each time.

Consider `CCN(CC)CCCOc1ccc(-c2ccc3[nH]c4ncc(/C=C/c5ccccc5)cc4c3c2)cc1` [R338, N,N-diethyl-3-(4-(3-(2′-phenylethenyl)-9H-pyrido[2,3-b]indol-6-yl)phenoxy)propan-1-amine], for which the IC50 in assay [1], in assay [3] and in assay [4] was 0.4 µM in each case. Besides, the GI50 in assay [2] stood at 0.5 µM.

(Values after US8895744B2, “Alfa-carboline inhibitors of NPM-ALK, RET, and Bcr-Abl” (Universita' Degli Studi di Milano-Bicocca, priority 2008, dated 2014).)
